# Experimental data as given in PMC6568410, “A scorpion venom peptide derivative BmKn‒22 with potent antibiofilm activity against Pseudomonas aeruginosa” (PLoS ONE, 2019).
# Where no end group is shown, it is not given here.
# Assays:
# P. aeruginosa PAO1 [1] = assay: MIC, broth microdilution; assay type: cell-based, Pseudomonas aeruginosa; conditions: broth microdilution in LB broth, 10^6 CFU/mL, 37 °C, 24 h; printed only as half of the MIC
# Procedure: MIC of azithromycin against P. aeruginosa was determined by using broth microdilution assay according to the protocol previously described with some modifications. Twofold serial dilutions of azithromycin (AZM; Sigma, St. Louis, USA) were prepared in LB broth in the wells of flat-bottomed 96-well microtiter plates (Nunc). Aliquots of P. aeruginosa PAO1 suspension at a final concentration of 10^6 CFU/mL was added to the wells of flat-bottomed 96-well microtiter plates (Nunc).
# [2] = tested on: P. aeruginosa PAO1 biofilms; assay: Antibiofilm activity of BmKn-22 and azithromycin alone or in combination, crystal violet; assay type: cell-based, Pseudomonas aeruginosa
# Procedure: (§1) The effect of BmKn‒2 peptide and derivatives on biofilm formation of P. aeruginosa PAO1 was determined according to the method published previously with some modifications. Briefly, 100 μL of the test peptides was plated into the wells of flat-bottomed 96-well microtiter plates (Nunc™, Roskilde, Denmark) at the final concentrations of 200 ‒ 800 μM. Aliquots of the P. aeruginosa PAO1 suspension were then inoculated to the wells of 96-well microtiter plates to obtain a final concentration of 10^6 CFU/mL. Culture without the test peptides was used as the untreated control. After incubation at 37 ^OC for 24 h without agitation, planktonic cells were removed and the plates were gently rinsed twice with phosphate buffered saline (PBS) pH 7.4. Biofilms were then stained with 0.1% crystal violet solution (Merck, Darmstadt, Germany) for 10 minutes at room temperature. Excess stains were rinsed off with PBS pH 7.4 and the plates were left dry at 37 ^OC for 2 h. Subsequently, biofilm biomass was solubilized with 30% acetic acid and the optical density (OD) measured at 550 nm using a microplate reader (BioTek Synergy HT).
# Briefly, P. aeruginosa PAO1 suspension (10^6 CFU/mL, final concentration) was added to the wells of flat-bottomed 96-well microtiter plates (Nunc) containing the test peptide, azithromycin (AZM; Sigma) alone or in combinations. […] Biofilm formation was employed by measuring biofilm biomass stained with crystal violet as a protocol described in previous section.
# [3] = tested on: P. aeruginosa PAO1 biofilm formation; assay: Biofilm formation assay, crystal violet staining; assay type: cell-based, Pseudomonas aeruginosa; conditions: for reduction of P. aeruginosa biofilms: 24 h, compared with untreated control, result in words
# Procedure: as §1
# P. aeruginosa PAO1 [4] = assay: Growth assay, standard plate counts; assay type: cell-based, Pseudomonas aeruginosa; conditions: 800 µM, 24 h; for effect on bacterial counts (growth): compared with untreated control, result in words
# Procedure: The effects of BmKn‒2 peptide and its derivatives on growth of P. aeruginosa PAO1 were carried out as described previously with some modifications. Bacterial suspension (10^6 CFU/mL) and the test peptides (800 μM, final concentration) were incubated at 37 ^OC at 150 rpm. Bacterial culture without the test peptides was used as the untreated control. After 24 h, bacterial concentration was evaluated. Cultures from each treatment were taken and 10-fold serial dilution was performed; 100 μL of each dilution was then spread on LB agar plates. Following incubation at 37°C for 24 h, the colonies were counted and expressed as log10 CFU/mL.
# sheep red blood cells = assay: Hemolytic assay; assay type: cell-based; conditions: 800 µM, 37 °C, 1 h
# Procedure: Hemolytic activity of the test peptides was assayed according to a protocol described previously. Suspension of 2% sheep red blood cells (100 μL) prepared in PBS pH 7.4 was incubated with 100 μL of the test peptides (800 μM, final concentration). After incubation at 37 ^OC for 1 h, the suspension was centrifuged at 1,000 g for 5 min followed by transferring 100 μL of the supernatant to 96 well-microtiter plate (Nunc). Released hemoglobin was then determined by measuring an absorbance at 405 nm using a microplate reader (BioTek Synergy HT). Positive and negative controls in this assay were 1% Triton X-100 and PBS pH 7.4, respectively. Hemolysis (%) was calculated using an equation: (OD405 nm peptide ‒ OD405 nm PBS pH 7.4)/(OD405 nm 1% Triton X-100 ‒ OD405 nm PBS pH 7.4) × 100.
# [5] = tested on: L929 mouse fibroblast cells; assay: Cytotoxicity, MTT assay; assay type: cell-based; conditions: 800 µM, 24 h; for effect on viability of L929 cells: compared with untreated control, result in words; for Cell viability (%): L929 cells
# Procedure: The toxicity of the test peptides against L929 mouse fibroblast cells was assessed by 3-(4,5-dimethylthiazol-2-yl)-2,5-diphenyltetrazolium bromide (MTT) assay. L929 mouse fibroblast cells from American Type Culture Collection (ATCC, Manassas, VA, USA) were cultured in Dulbecco's Modified Eagle Medium (DMEM; HyClone, Utah, USA) supplemented with 10% fetal bovine serum (Gibco, South America), 10 mM 4-(2-hydroxyethyl)-1 piperazineethanesulfonic acid (HEPES; HyClone, Utah, USA), 2 mM L-glutamine (Gibco, Brazil) and 100 U/mL penicillin and 100 μg/ml streptomycin (Gibco, USA) in a 5% CO2 atmosphere at 37°C. L929 cells (2×10^4 cells/well) were seeded in 96-well plates (Nunc) and incubated overnight. The culture medium was discarded and replaced by 100 μL of fresh DMEM containing the test compounds (final concentration 800 μM). Cells without the test compounds served as untreated control. After 24 h incubation, 20 μL of MTT solution (5 mg/mL; Sigma, St. Louis, MO, USA) was added and incubated for 3 h. The culture supernatant was removed and 100 μL dimethyl sulfoxide was added to each well to dissolve the formazan crystals. The absorbance was measured at 540 nm on a microplate reader (BioTek Synergy HT). Percentage of cell viability was calculated according to the equation: (OD of treated cells/ OD of untreated cells) × 100.
# [6] = tested on: P. aeruginosa PAO1 established biofilms; assay: Established (24 h-preformed) biofilm assay, crystal violet staining; assay type: cell-based, Pseudomonas aeruginosa
# Procedure: Antibiofilm activity of the test peptides was also examined against established biofilms as follows. Aliquots of the P. aeruginosa PAO1 suspension adjusted to a final concentration of 10^6 CFU/mL were seeded into the wells of flat-bottomed 96-well microtiter plates (Nunc). Biofilms were established at 37°C for 24 h. After incubation, nonadherent planktonic cells were removed by gently washing the wells with sterile PBS pH 7.4. Preformed biofilms were then treated with the test peptides at concentrations of 200 ‒ 800 μM and incubated at 37°C for 24 h. Culture without the test peptides served as the untreated control. After the incubation, the test peptides were aspirated gently and the plates were rinsed twice with PBS pH 7.4. Biofilm biomass was subsequently quantified by 0.1% crystal violet staining as previously described.
# [7] = 37 °C, 150 rpm, plate counts, untreated control 9.183, mean of 3 independent experiments
# [8] = Exp. 1 (untreated control 9.082)
# [9] = Exp. 2 (untreated control 9.198)
# [10] = Exp. 3 (untreated control 9.268)
Compound,reduction of P. aeruginosa biofilms ([3]; 800 µM),"Bacterial growth, Log10 CFU/mL (P. aeruginosa PAO1 [4]; [7]) [Log10 CFU/mL]",effect on bacterial counts (growth) (P. aeruginosa PAO1 [4]),"Bacterial growth, Log10 CFU/mL (P. aeruginosa PAO1 [4]; [8]) [Log10 CFU/mL]","Bacterial growth, Log10 CFU/mL (P. aeruginosa PAO1 [4]; [9]) [Log10 CFU/mL]","Bacterial growth, Log10 CFU/mL (P. aeruginosa PAO1 [4]; [10]) [Log10 CFU/mL]",lysis of red blood cells (sheep red blood cells),effect on viability of L929 cells [5],Cell viability (%) ([5]; Exp. 1),Cell viability (%) ([5]; Exp. 2),Cell viability (%) ([5]; Exp. 3),also measured
"CC[C@H]1OC(=O)[C@H](C)[C@@H](O[C@H]2C[C@@](C)(OC)[C@@H](O)[C@H](C)O2)[C@H](C)[C@@H](O[C@@H]2O[C@H](C)C[C@H](N(C)C)[C@H]2O)[C@](C)(O)C[C@@H](C)CN(C)[C@H](C)[C@@H](O)[C@]1(C)O [AZM, azithromycin, reference compound]",–,–,–,–,–,–,–,–,–,–,–,"sub-MIC (1/2 of MIC) dose (P. aeruginosa PAO1 [1]): 64 µg/mL; Biofilm biomass (% control) ([2]; azithromycin alone 64 µg/ml (1/2 MIC), 24 h, 37 °C, crystal violet, mean of 3 independent experiments): 100.000 % control; Biofilm biomass (% control) ([2]; azithromycin alone 64 µg/ml, Exp. 1): 100.000 % control; Biofilm biomass (% control) ([2]; azithromycin alone 64 µg/ml, Exp. 2): 100.000 % control; Biofilm biomass (% control) ([2]; azithromycin alone 64 µg/ml, Exp. 3): 100.000 % control; biofilm inhibition by azithromycin alone ([2]; sub-MIC dose (1/2 MIC, 64 µg/mL), result in words): significant biofilm inhibition was not evident"
FIGAIAR [BmKn-26],less biofilm reduction activities,9.247,no significant (P > 0.05) differences in bacterial counts,9.213,9.213,9.314,less or no hemolysis,low effects on cell viability,85.233,87.113,79.724,–
FIGAIARL [BmKn-25],less biofilm reduction activities,9.293,no significant (P > 0.05) differences in bacterial counts,9.255,9.288,9.335,less or no hemolysis,low effects on cell viability,82.909,93.165,83.012,–
FIGAIARLL [BmKn-24],less biofilm reduction activities,9.313,no significant (P > 0.05) differences in bacterial counts,9.304,9.273,9.364,less or no hemolysis,low effects on cell viability,84.274,81.538,83.751,–
FIGAIARLLS [BmKn-23],marked reduction,9.429,no significant (P > 0.05) differences in bacterial counts,9.488,9.359,9.440,less or no hemolysis,low effects on cell viability,80.383,84.400,88.135,"Biofilm inhibition (%), biofilm formation ([3]; 200 µM, Exp. 1): 28.654%; Biofilm inhibition (%), biofilm formation ([3]; 200 µM, Exp. 2): 28.944%; Biofilm inhibition (%), biofilm formation ([3]; 200 µM, Exp. 3): 40.209%; Biofilm inhibition (%), biofilm formation ([3]; 400 µM, Exp. 1): 34.053%; Biofilm inhibition (%), biofilm formation ([3]; 400 µM, Exp. 2): 36.612%; Biofilm inhibition (%), biofilm formation ([3]; 400 µM, Exp. 3): 46.402%; Biofilm inhibition (%), biofilm formation ([3]; 800 µM, Exp. 1): 44.669%; Biofilm inhibition (%), biofilm formation ([3]; 800 µM, Exp. 2): 49.083%; Biofilm inhibition (%), biofilm formation ([3]; 800 µM, Exp. 3): 70.992%; Biofilm inhibition (%), preformed biofilm ([6]; 200 µM, Exp. 1): 0.000%; Biofilm inhibition (%), preformed biofilm ([6]; 200 µM, Exp. 2): 3.802%; Biofilm inhibition (%), preformed biofilm ([6]; 200 µM, Exp. 3): 6.512%; Biofilm inhibition (%), preformed biofilm ([6]; 400 µM, Exp. 1): 12.191%; Biofilm inhibition (%), preformed biofilm ([6]; 400 µM, Exp. 2): 4.570%; Biofilm inhibition (%), preformed biofilm ([6]; 400 µM, Exp. 3): 0.000%; Biofilm inhibition (%), preformed biofilm ([6]; 800 µM, Exp. 1): 3.155%; Biofilm inhibition (%), preformed biofilm ([6]; 800 µM, Exp. 2): 0.000%; Biofilm inhibition (%), preformed biofilm ([6]; 800 µM, Exp. 3): 8.639%; % inhibition of 24 h-preformed P. aeruginosa biofilms ([6]; range over 200 - 800 µM, 24 h treatment): No eradication activity"
FIGAIARLLSKI [BmKn-21],marked reduction,6.183,reduction in bacterial counts,6.000,6.314,6.236,–,significant decrease (P < 0.001) in viability,1.974,1.699,1.835,–
"FIGAIARLLSKIF [BmKn-2, reference compound]",marked reduction,6.872,reduction in bacterial counts,6.755,6.448,7.411,–,significant decrease (P < 0.001) in viability,2.236,2.027,1.988,–
